The source of these data is patent publication US20240383921A1, “AMIDE AND UREA-CONTAINING TRICYCLIC KRAS INHIBITORS” (Erasca, Inc., priority 2021, published 2024).

In one assay the test system is Ras Initiative (RI) KRAS G12C cells. Description: phospho-ERK HTRF assay in RI KRAS G12C cells. Type of assay: cell-based. To be noted: 11-point dose response starting at 2,500 nM, 4 hours or 16 hours treatment, read-out: pERK (RI). How it is done:
KRAS G12C mutant lines, NCI H358 (ATCC, CRL-5807), and Ras Initiative (RI) KRAS G12C were cultured according to published protocols and maintained at 37° C. in 5% CO2. The phospho-ERK HTRF assay was executed following provider's protocol (CisBio #64AERPEH). NCI-H358 or RI KRAS G12C cells were plated at a density of 50,000 cells per well in a 96-well plate (Corning #3903) in respective medias (for NCI-H358, RPMI+10% FBS+1% Pen/Strep, and for RI KRAS G12C, DMEM+10% FBS+1% Pen/Strep+4 μg/mL Blasticidin) and maintained at 37° C. in 5% CO2. Cells were allowed to adhere overnight and treated the following day with a Tecan D300e Digital Dispenser (Tecan Group Ltd., Switzerland) using an 11-point dose response starting at 2,500 nM of exemplified compounds followed by sequential 1:3 dilutions for either 4 hours or 16 hours. Following compound treatment, the cells were washed once with ice-cold PBS. Cells were lysed by adding 50 μL of lysis buffer (1×) supplemented with 1× Pierce Halt Protease and Phosphatase inhibitor and incubated for 30 minutes at 4° C. with shaking. After lysis, 16 μL of cell lysate from the 96-well cell-culture plate was transferred to a 384-well plate (Perkin Elmer #6007290). The premixed antibody solution was prepared by mixing (vol/vol) advanced phospho-ERK1/2 d2 antibody and advanced phospho-ERK1/2 Eu Cryptate antibody. The premixed antibody solution (4 μL) was added to the detection plate containing cell lysate. The detection plate was incubated overnight at 4° C., the HTRF signal was read the next day by using either a Spectramax M5 or Spectramax i3 microplate reader (Molecular Devices, San Jose, CA, USA), and data was processed according to manufacturer's protocol.
Examples were evaluated according to the above p-ERK assay
Background: TR-FRET usually uses a lanthanide donor and a delayed reading to cut background.
Take `C=CC(=O)N1[C@H](C)CN(c2nc(=O)n3c4c(c(-c5ccc(F)c6sc(=O)[nH]c56)c(C(F)(F)F)cc24)SC[C@@H]3COC)C[C@@H]1C` [Example 6, (3S,10S)-7-((3S,5R)-4-acryloyl-3,5-dimethylpiperazin-1-yl)-10-(7-fluoro-2-oxo-2,3-dihydrobenzo[d]thiazol-4-yl)-3-(methoxymethyl)-9-(trifluoromethyl)-2,3-dihydro-5H-[1,4]thiazino[2,3,4-ij]quinazolin-5-one]: the IC50 worked out at 68 nM.

`C=CC(=O)N1CCN(c2nc(=O)n3c4c(c(-c5ccc(F)c6sc(=O)[nH]c56)c(C(F)(F)F)cc24)SC[C@@H]3COC)CC1` [Example 7, (3S,10S)-7-(4-acryloylpiperazin-1-yl)-10-(7-fluoro-2-oxo-2,3-dihydrobenzo[d]thiazol-4-yl)-3-(methoxymethyl)-9-(trifluoromethyl)-2,3-dihydro-5H-[1,4]thiazino[2,3,4-ij]quinazolin-5-one]: the IC50 came out at 18 nM.

For `C=CC(=O)N1[C@H](C)CN(c2nc(=O)n3c4c(c(-c5ccc(F)c6[nH]c(=O)[nH]c56)c(C(F)(F)F)cc24)SCC2(CCC2)C3)C[C@@H]1C` [Example 4, 8′-((3S,5R)-4-acryloyl-3,5-dimethylpiperazin-1-yl)-11′-(7-fluoro-2-oxo-2,3-dihydro-1H-benzo[d]imidazol-4-yl)-10′-(trifluoromethyl)-2′H, 4′H,6′H-spiro[cyclobutane-1,3′-[1,4]thiazepino[2,3,4-ij]quinazolin]-6′-one], the IC50 was greater than 2500 nM.

For `C=CC(=O)N1[C@H](C)CN(c2nc(=O)n3c4c(c(-c5ccc(F)c6[nH]c(=O)[nH]c56)c(C(F)(F)F)cc24)SC[C@@H](OC)C3)C[C@@H]1C` [Example 1, (3S)-8-((3S,5R)-4-acryloyl-3,5-dimethylpiperazin-1-yl)-11-(7-fluoro-2-oxo-2,3-dihydro-1H-benzo[d]imidazol-4-yl)-3-methoxy-10-(trifluoromethyl)-3,4-dihydro-2H,6H-[1,4]thiazepino[2,3,4-ij]quinazolin-6-one], the IC50 is greater than 2500 nM.

With `C=CC(=O)N1[C@H](C)CN(c2nc(=O)n3c4c(c(-c5ccc(F)c6[nH]c(=O)[nH]c56)c(C(F)(F)F)cc24)SC[C@@H]3COC)C[C@@H]1C` [Example 2, (3S,10S)-7-((3S,5R)-4-acryloyl-3,5-dimethylpiperazin-1-yl)-10-(7-fluoro-2-oxo-2,3-dihydro-1H-benzo[d]imidazol-4-yl)-3-(methoxymethyl)-9-(trifluoromethyl)-2,3-dihydro-5H-[1,4]thiazino[2,3,4-ij]quinazolin-5-one], the IC50 is greater than 2500 nM.

As for `C=CC(=O)N1[C@H](C)CN(c2nc(=O)n3c4c(c(-c5ccc(F)c6sc(=O)[nH]c56)c(C(F)(F)F)cc24)SCC2(CCC2)C3)C[C@@H]1C` [Example 8, 8′-((3S,5R)-4-acryloyl-3,5-dimethylpiperazin-1-yl)-11′-(7-fluoro-2-oxo-2,3-dihydrobenzo[d]thiazol-4-yl)-10′-(trifluoromethyl)-2′H,4′H,6′H-spiro[cyclobutane-1,3′-[1,4]thiazepino[2,3,4-ij]quinazolin]-6′-one], the IC50 was determined as 171 nM.

Regarding `C=CC(=O)N1[C@H](C)CN(c2nc(=O)n3c4c(c(-c5ccc(F)c6sc(=O)n(C)c56)c(C(F)(F)F)cc24)SC[C@@H]3COC)C[C@@H]1C` [Example 10, (3S)-7-((3S,5R)-4-acryloyl-3,5-dimethylpiperazin-1-yl)-10-(7-fluoro-3-methyl-2-oxo-2,3-dihydrobenzo[d]thiazol-4-yl)-3-(methoxymethyl)-9-(trifluoromethyl)-2,3-dihydro-5H-[1,4]thiazino[2,3,4-ij]quinazolin-5-one], the IC50 came to 46 nM.

As for `C=CC(=O)N1CCN(c2nc(=O)n3c4c(c(-c5ccc(F)c6sc(=O)[nH]c56)c(C(F)(F)F)cc24)SCC2(CCC2)C3)CC1` [Example 9, 8′-(4-acryloylpiperazin-1-yl)-11′-(7-fluoro-2-oxo-2,3-dihydrobenzo[d]thiazol-4-yl)-10′-(trifluoromethyl)-2′H,4′H,6′H-spiro[cyclobutane-1,3′-[1,4]thiazepino[2,3,4-ij]quinazolin]-6′-one], the IC50 is 222 nM.

For the compound `C=CC(=O)N1CCN(c2nc(=O)n3c4c(c(-c5ccc(F)c6[nH]c(=O)[nH]c56)c(C(F)(F)F)cc24)SC[C@@H]3COC)CC1` [Example 3, (3S,10S)-7-(4-acryloylpiperazin-1-yl)-10-(7-fluoro-2-oxo-2,3-dihydro-1H-benzo[d]imidazol-4-yl)-3-(methoxymethyl)-9-(trifluoromethyl)-2,3-dihydro-5H-[1,4]thiazino[2,3,4-ij]quinazolin-5-one], the IC50 was greater than 2500 nM.

As to `C=CC(=O)N1CCN(c2nc(=O)n3c4c(c(-c5ccc(F)c6[nH]c(=O)[nH]c56)c(C(F)(F)F)cc24)SCC2(CCC2)C3)CC1` [Example 5, 8′-(4-acryloylpiperazin-1-yl)-11′-(7-fluoro-2-oxo-2,3-dihydro-1H-benzo[d]imidazol-4-yl)-10′-(trifluoromethyl)-2′H,4′H,6′H-spiro[cyclobutane-1,3′-[1,4]thiazepino[2,3,4-ij]quinazolin]-6′-one], the IC50 is greater than 2500 nM.

For a further assay, the target named is T1, KRAS 4B G12C protein (Homo sapiens, UniProt P01116, G12C).
T1 construct: made in house; host or cells: E. coli BL21
The assay is described as follows: KRAS G12C covalent adduct formation (CAF) assay, LC-MS. It counts as binding. To be noted: 10 μM compound, 5 μM protein, 22° C. How it is done: This Example provides a protocol for assessing covalent adduct formation (CAF) between the compounds of Formula (I) and KRAS.
In vitro covalent adduct formation assay: Covalent adduct formation (CAF) reactions between Cys12 of the KRAS 4B G12C protein and the compounds disclosed herein were measured in vitro using liquid chromatography-mass spectrometry (LC-MS).
Recombinant Human KRAS 4B protein containing the G12C mutation was used in compound screening experiments. This protein contained 188 amino acids in total, including an N-terminal 6-Histidine tag, followed by a Tobacco Etch Virus (TEV) tag, followed by residues 1-169 of the native KRAS 4B sequence. The exact mass of the protein is 21,310 Da as determined by mass spectrometry. […]
The recombinant protein is expressed in E. coli BL21 cells and purified using affinity chromatography via a Ni-NTA column. […] The intact mass of the protein samples was measured by LC-MS using a QExactive+ mass spectrometer (Thermo Scientific). An amount of 500 ng total protein was injected onto a C8 reverse phase column, eluted with a seven-minute gradient of 30%-90% acetonitrile/0.1% formic acid, and analyzed for intact mass by the mass spectrometer. Adducts identified were confirmed to be within 1 Dalton of the expected mass, and the relative ratios of free:adduct protein were used to quantify the percentage of protein bound by the compound. […]
On to `C=CC(=O)N1[C@H](C)CN(c2nc(=O)n3c4c(c(-c5ccc(F)c6[nH]c(=O)[nH]c56)c(C(F)(F)F)cc24)SC[C@@H](OC)C3)C[C@@H]1C` [Example 1, (3S)-8-((3S,5R)-4-acryloyl-3,5-dimethylpiperazin-1-yl)-11-(7-fluoro-2-oxo-2,3-dihydro-1H-benzo[d]imidazol-4-yl)-3-methoxy-10-(trifluoromethyl)-3,4-dihydro-2H,6H-[1,4]thiazepino[2,3,4-ij]quinazolin-6-one], for which the “% CAF @ 60 min” value was found to be 75%.
